{"source": "patent US7371534B2", "about": "“Sensitive intracellular calcium assay” (Discoverx Corporation, priority 2004, dated 2008)", "test_system": "Muscarinic receptor", "test": "Intracellular calcium assay for the effect of carbachol (Fluo-4 AM, FLIPR peak fluorescence)", "format": "cell-based", "conditions": "for change in signal based on the value at 10 nM: 10 nM to 1000 nM", "description": "Assay is run in a standard 384-well microtiter plate with a clear bottom. Cells are seeded at a density of 30,000 cells/well, and allowed to grow overnight in standard tissue culture medium, under standard tissue culture conditions.\nThe next day, tissue culture supernatant is removed, and 50 μl of Calcium Reagent (Molecular Devices, Sunnyvale Calif.) is added to the wells. Plate is incubated for 1 hour at 37EC in a standard tissue culture incubator. This step loads the dye into the cells.\nAfter the 1 hour incubation, the plate is transferred to the Molecular Device FLIPR instrument, which measures the cellular fluorescence (excitation at 488 nm /emission 515 nm filter), in one second intervals. The dye is hydrolyzed in the cell by esterases and becomes fluorescent. The instrument adds 25 microliters of carbachol (agonist for cellular calcium response) 10 seconds after the initiation of the read, and the increase in free cellular calcium resulting from carbachol stimulation is measured as an increase in cellular fluorescent signal.\nThe reagent: 3 μM Fluo-4 AM dye (Molecular Probes, Eugene Oreg.), 150 nM antibody in HEPES buffer (pH 7.4) containing 1% fetal bovine serum (Sigma), 0.1% Pluronic F127 (BASF) and 0.5 mM probenecid (Sigma) is added.\nInstrument software identifies peak fluorescence, which is directly correlated to cellular calcium levels.", "data": [{"compound": "C[N+](C)(C)CCOC(N)=O", "note": "[Carbachol]", "values": [{"measurement": "change in signal based on the value at 10 nM", "setting": "commercial reagent", "result": 21, "unit": "%"}, {"measurement": "change in signal based on the value at 10 nM", "setting": "present reagents", "result": 161, "unit": "%"}, {"measurement": "Calcium Assay, RFU (peak fluorescence)", "setting": "carbachol 10 nM, Commercial Reagents (prior art, Quencher-Ab conjugate -)", "result": 9410, "unit": "RFU"}, {"measurement": "Calcium Assay, RFU (peak fluorescence)", "setting": "carbachol 10 nM, DiscoveRx Reagents (present reagents, Quencher-Ab conjugate +)", "result": 2589, "unit": "RFU"}, {"measurement": "Calcium Assay, RFU (peak fluorescence)", "setting": "carbachol 1000 nM, Commercial Reagents (prior art, Quencher-Ab conjugate -)", "result": 11348, "unit": "RFU"}, {"measurement": "Calcium Assay, RFU (peak fluorescence)", "setting": "carbachol 1000 nM, DiscoveRx Reagents (present reagents, Quencher-Ab conjugate +)", "result": 6767, "unit": "RFU"}, {"measurement": "difference in signal in going from 10 nM to 1000 nM", "setting": "commercial reagent", "result": 1938, "unit": "RFU"}, {"measurement": "change in signal in going from 10 nM to 1000 nM", "setting": "present reagents", "result": 4178, "unit": "RFU"}]}]}
